For 4 compounds, DC50, XRPD-3 days and XRPD-7 days results are on record in patent publication US20240245677A1, “SELECTED COMPOUNDS FOR TARGETED DEGRADATION OF BRD9” (C4 THERAPEUTICS, INC., priority 2021, published 2024).

The target in one data set is T1, BRD9 (Homo sapiens, UniProt Q9H8M2).
T1 sequence (Q9H8M2 1-597): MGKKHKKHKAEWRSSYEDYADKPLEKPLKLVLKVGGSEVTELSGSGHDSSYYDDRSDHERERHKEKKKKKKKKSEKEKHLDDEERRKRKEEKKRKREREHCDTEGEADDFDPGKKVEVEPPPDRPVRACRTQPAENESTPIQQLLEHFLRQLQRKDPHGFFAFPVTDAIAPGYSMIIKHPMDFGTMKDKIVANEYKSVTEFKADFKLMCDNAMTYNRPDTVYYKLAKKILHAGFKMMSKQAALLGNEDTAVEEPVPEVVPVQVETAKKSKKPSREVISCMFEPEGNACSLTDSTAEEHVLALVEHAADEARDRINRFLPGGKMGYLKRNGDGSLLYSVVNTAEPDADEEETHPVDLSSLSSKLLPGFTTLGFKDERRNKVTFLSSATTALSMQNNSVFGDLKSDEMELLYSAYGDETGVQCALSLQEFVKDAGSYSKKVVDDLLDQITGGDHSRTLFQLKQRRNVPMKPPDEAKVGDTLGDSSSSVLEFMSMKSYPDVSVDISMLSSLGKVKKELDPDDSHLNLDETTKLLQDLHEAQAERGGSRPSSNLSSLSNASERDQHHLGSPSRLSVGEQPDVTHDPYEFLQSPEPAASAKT
In words: BRD9 HiBiT degradation assay in 293T.166 (HEK293T.166) cells. In kind it is cell-based. The arrangement: endogenously expressing BRD9 with HiBiT fusion tag via CRISPR; host or cells: HEK293T.166 (293T.166, BRD9-HiBiT HEK293, LgBiT by lentivirus). The settings on record: 293T.166 cells, 2.0 hours; read-out: HiBiT-Degradation 293T.166 BRD9 2.0 hours (DC50). Here is the method:
Selected compounds were tested in a BRD9 degradation assay using the HiBit Method.
Dulbecco's modified Eagle medium (DMEM) without phenol red and fetal bovine serum (FBS) were purchased from Gibco (Grand Island, NY, USA). Nano-Glo® HiBiT Lytic Assay System was purchased from Promega (Madison, WI, USA). 293T.166 (BRD9-HiBiT) cell line, endogenously expressing BRD9 with HiBiT fusion tag via CRISPR and ectopically expressing LgBiT tag, was purchased from Promega (Madison, WI, USA). 293T.167 (BRD7-HiBiT) cell line, endogenously expressing BRD7 with HiBiT fusion tag via CRISPR and ectopically expressing LgBiT tag, was purchased from Promega (Madison, WI, USA). 293T.92 (BRD4-HiBiT) cell line, endogenously expressing BRD4 with HiBiT fusion tag via CRISPR and ectopically expressing LgBiT tag, was generated in-house. Cell culture flasks and 384-well microplates were acquired from VWR (Radnor, PA, USA).
BRD9 degradation was determined based on quantification of luminescent signal using Nano-Glo® HiBiT Lytic Assay kit. Test compounds were added to the 384-well plate from a top concentration of 10 μM with 11 points, half log titration in duplicates. 293T.166 cells were added into 384-well plates at a cell density of 10,000 cells per well. The plates were kept at 37° C. with 5% CO2 for 2 hours. BRD7 and BRD4 degradation was similarly determined with 293T.167 cells and 293T.92 cells, respectively. The cells treated in the absence of the test compound were the negative control and the cells without Nano-Glo® HiBiT Lytic reagent were the positive control. After 2-hour incubation, Nano-Glo® HiBiT Lytic Assay reagents were added to the cells. Luminescence was acquired on EnVision® Multilabel Reader (Catalog No. 2104-0010, Perkin Elmer Inc., Dumfries, VA, USA).
This assay evaluates the degradation of BRD9 induced by treatment with Compound 1 or Compound 2 as measured by luminescence using Nano-Glo® HiBiT Lytic Assay System in HEK293 cells CRISPR-edited to endogenously express HiBiT tagged BRD9 and exogenously express LgBiT protein.
Nano-Glo® HiBiT Lytic Assay System was purchased from Promega (Catalog No. N3050, Madison, WI, USA). BRD9-HiBiT HEK293 cells were purchased from Promega (Catalog No. CS302348, Madison, WI, USA). The cells were maintained in Dulbecco's modified Eagle medium (DMEM) without phenol red (Catalog No. 12430112, ThermoFisher Scientific, Waltham, MA, USA) supplemented with 10% fetal bovine serum (FBS) (Catalog No. 16000-044, Gibco, Grand Island, NY, USA) at 37° C. in an atmosphere of 5% CO2 in air. The HiBiT polypeptide tag was introduced into the C-terminus of the endogenous BRD9 locus by CRISPR-Cas9 and the LgBiT protein was introduced via Lentiviral infection to produce the modified HEK293T.166 cell line. The HiBiT polypeptide and LgBiT protein allow reconstitution of NanoBiT enzyme in the cells. The Nano-Glo® HiBiT Lytic Substrate was then added and activated by the NanoBiT enzyme following cell lysis to produce a luminescent signal that is directly proportional to the amount of HiBiT-tagged BRD9.
The HEK293T.166 cells were routinely sub-cultured to maintain cell density between 30-80% confluence, not to exceed 20 passages. Cells were washed with PBS pH 7.4 (Catalog No. 10010049, ThermoFisher Scientific, Waltham, MA, USA), trypsinized for 5 minutes at 37° C., and resuspended in fresh growth media without phenol red. An aliquot was diluted 2× with Trypan Blue solution 0.4% (Catalog No. 15250061, ThermoFisher Scientific, Waltham, MA, USA) and cell count determined. Cell concentration was adjusted with growth media without phenol red to 3.3×10^5 cells/mL.
Compound 1 or Compound 2 was prepared by dissolving neat compounds in DMSO (Catalog No. D8418, Sigma-Aldrich, Inc., St. Louis, MO, USA) to generate 10 mM stock solution and stored at −20° C. […]
(In general: HiBiT is a short tag that completes a luciferase, so light tracks the accessible tagged protein.)

A short description of data set [1]: Competitive water activity study. In kind it is physicochemical. The procedure:
Competitive water activity experiments at 25° C. were conducted for hydrate Pattern A and anhydrate Pattern G. Pattern A, and Pattern G, were equilibrated at 25° C. in 6 different water activities with acetone/water mixtures. Obtained suspensions were stirred at 25° C. for 3 days and 7 days. Obtained suspensions were centrifuged and obtained solids were analyzed by XRPD immediately.
Competitive water activity experiments at 25° C. were conducted for hydrate Pattern A and anhydrate Pattern M. Pattern A, and Pattern M were equilibrated at 25° C. in 6 different water activities with acetone/water mixtures. Obtained suspension was stirred at 25° C. for 3 days and 7 days. Obtained suspensions were centrifuged and obtained solids were analyzed by XRPD immediately.

Setting [2] is: Acetone/water (v:v = 60:40), a.w. 0.8.
Setting [3] is: Acetone/water (v:v = 86:14), a.w. 0.6.
The mark [4] stands for this setting: Acetone/water (v:v = 95:5), a.w. 0.4.
Setting [5] is: Acetone/water (v:v = 98:2), a.w. 0.2.

The structures appear in SMILES notation.

In general, DC50 refers to the concentration giving 50% degradation. On to `COc1cc(-c2cn(C)c(=O)c(C)c2C)cc(OC)c1CN1CCC(N2CCN(c3ccc(NC4CCC(=O)NC4=O)cc3F)CC2)C(F)(F)C1` (stereo not shown) [Compound 5], for which, at BRD9, the 50% degradation concentration (DC50) was below 100 nM.

Turning to `COc1cc(-c2cn(C)c(=O)c(C)c2C)cc(OC)c1CN1CC[C@H](N2CCN(c3ccc(N[C@H]4CCC(=O)NC4=O)cc3F)CC2)C(F)(F)C1` [Pattern A and Pattern G], the XRPD-3 days entry in data set [1] (Acetone, a.w. 0.0) is reported as “Pattern B”; in data set [1] (setting [2]), “Pattern K”; in data set [1] (setting [3]), “Pattern B”; in data set [1] (setting [4]), “Pattern B”; in data set [1] (setting [5]) it was “Pattern B”. In addition, the XRPD-7 days entry is listed as “Pattern N” in data set [1] (Acetone, a.w. 0.0); “Pattern K” in data set [1] (setting [2]); “Pattern B” in data set [1] (setting [3]); “Pattern N” in data set [1] (setting [4]); “Pattern N” in data set [1] (setting [5]); “Pattern K” in data set [1] (Water, a.w. 1.0).

Consider `COc1cc(-c2cn(C)c(=O)c(C)c2C)cc(OC)c1CN1CC[C@H](N2CCN(c3ccc(N[C@H]4CCC(=O)NC4=O)cc3F)CC2)C(F)(F)C1` [Pattern A and Pattern M], for which the XRPD-3 days entry is listed as “Pattern N” in data set [1] (Acetone, a.w. 0.0); “Pattern K” in data set [1] (setting [2]); “Pattern N” in data set [1] (setting [3]); “Pattern N” in data set [1] (setting [4]); “Pattern N” in data set [1] (setting [5]); “Pattern K” in data set [1] (Water, a.w. 1.0). Moreover, the XRPD-7 days entry in data set [1] (Acetone, a.w. 0.0) is “Pattern N”; in data set [1] (setting [2]), “Pattern A”; in data set [1] (setting [3]), “Pattern N”; in data set [1] (setting [4]), “Pattern N”; in data set [1] (setting [5]) it was “Pattern N”; in data set [1] (Water, a.w. 1.0), “Pattern A”.

As for `COc1cc(-c2cn(C)c(=O)c(C)c2C)cc(OC)c1CN1CC[C@H](N2CCN(c3ccc(N[C@H]4CCC(=O)NC4=O)cc3F)CC2)C(F)(F)C1` [Pattern A, Pattern C, Pattern D, and Pattern E], the XRPD-7 days result is recorded as “Pattern B” in data set [1] (Acetone, a.w. 0.0); “Pattern K” in data set [1] (Acetone/water (v:v = 36:64), a.w. 0.9); “Pattern K” in data set [1] (Acetone/water (v:v = 76:24), a.w. 0.7); “Pattern B” in data set [1] (Acetone/water (v:v = 92:8), a.w. 0.5); “Pattern B” in data set [1] (Acetone/water (v:v = 97:30), a.w. 0.3); “Pattern B” in data set [1] (Acetone/water (v:v = 99.5:0.5), a.w. 0.1). The XRPD-7 days entry in data set [1] (Water, a.w. 1.0) is given as “Pattern K”.
